Experimental data from article PMC7663263 (Molecules, 2020).
Like-named read-outs stand apart in the source and are kept apart here.

What was measured:
[1] = tested on: BL3 cells; assay type: cell-based, bovine
Procedure: Theileria annulata culture: The TBL3 cell line was derived by in vitro infection of the spontaneous bovine B-lymphosarcoma cell line BL3 with the Hissar stock of T. annulata. B cell characteristics of the lines have been described. The cells are maintained at 37 °C under 5% CO2, in RPMI medium supplemented with 10% FCS, 25 mM Hepes, 4 mM L-glutamine, 100 μg/mL of streptomycin, 100 IU/mL of penicillin and […] 2-mercapthoethanol.
Cells were cultured in 12-well plates at an initial density of 200,000 cells per well in duplicate for each condition. […] The cells were cultured in 12-well plates at an initial density of 200,000 cells per well and drug was added every 24 h. To be able to compare the results, a drug-free control was also performed. Cell counting was done at 24, 72 and 96 h using the trypan blue method.

[2] = tested on: Human TrxR; conditions: 3.7 nM enzyme, 3 mM DTNB; after 10 min preincubation; read-out: IC50 Human TrxR, substrate DTNB; cited from earlier work
[3] = tested on: RAW 264.7 macrophages; test: Cytotoxicity on RAW 264.7 macrophages; assay type: cell-based, murine; conditions: 48 h incubation; read-out: Cytotoxicity on RAW 264.7 Macrophages CC50 (µM) ± SD
Procedure: Cytotoxicity was evaluated on RAW 264.7 macrophages that were maintained at 37 °C with 5% CO2 in Dulbecco’s Modified Eagle’s Medium (DMEM, Invitrogen, Toulouse, France) supplemented with 100 U/mL penicillin-streptomycin (Invitrogen) and 10% heat-inactivated fetal bovine serum, as previously described. Briefly, cells were plated in 96-well microplates at a density of 2 × 10^4 cells per well. After incubation for 24 h at 37 °C in 5% CO2, the medium was removed from each well and 100 µL of medium containing 2-fold serial dilutions of compounds was added to each well. After 48 h incubation at 37 °C in 5% CO2, 10 µL of 450 µM resazurin was added to each well and further incubated in the dark for 4 h. Cell viability was determined as described above. The cytotoxicity of the compounds was expressed as CC50.

[4] = tested on: O. ochengi adult female; test: Onchocerca ochengi adult female worm assay (MTT/formazan); assay type: cell-based; conditions: 10 μM; females assessed by MTT/formazan assay
Procedure: (§1) Onchocerca ochengi adult worm assays: For O. ochengi worm assays, subcutaneous nodules containing adult O. ochengi worms were removed from the hides of infected cows collected at abattoirs in Douala, Cameroon. Masses were incubated in 4 mL of complete culture medium (RPMI-1640, 5% newborn calf serum, 200 units/mL penicillin, 200 μg/mL streptomycin and 2.5 μg/mL amphotericin B) in standard 12-well culture plates and maintained in a 37 °C, 5% CO2 incubator overnight during which time the adult males migrated out of the masses while the females remained in the nodules. Compound and control wells (worms in 1% DMSO) were tested in quadruplicate and experiments were repeated twice on different days. Cultures were terminated on day 7. […] Adult female worm viability was assessed on day 7 by the standard MTT/formazan assay in which each nodular mass was placed in a well of a 48-well plate containing 500 μL of 0.5 mg/mL MTT (Sigma-Aldrich) in culture medium. Viability was evaluated visually by the extent to which the female worm mass was stained with MTT. Mean percent inhibition of formazan formation was calculated relative to the negative control worm masses after 7 days in culture.

[5] = tested on: Human TrxR; conditions: 30 nM enzyme, 20 µM substrate; after 10 min enzyme-NADPH-gold complex preincubation; read-out: IC50 Human TrxR, substrate hTrxC72S; cited from earlier work
[6] = tested on: human fetal lung fibroblast (MRC-5); test: in vitro
Procedure: Toxicity in human fetal lung fibroblast (MRC-5) cell line and primary mouse macrophages (PMM) was assessed using a previously reported assay in 96-well microtiter plates. Tamoxifen and miltefosine were included as reference drugs (Table 10).
For MRC5SV2 or PMM cells, the assays were performed in 96-well microtiter plates, each well containing 10 µL of compound dilution and 190 µL of cell inoculum (3 × 10^4 cells/mL) as reported. Cell growth was compared to untreated controls (100% growth) and assay-media controls (0% growth). After three-day incubation, cell viability was assessed fluorometrically by adding resazurin [50 µL/well of a stock solution in phosphate buffer (50 µg/mL)], incubating for 4 h and measuring fluorescence (ex 550 nm, em 590 nm). The results are expressed as percentage reduction in cell growth as compared to untreated control wells. […] Tamoxifen was included as the reference drug.

[7] = tested on: Leishmania donovani LV9 axenic amastigotes; test: L. donovani LV9 axenic amastigotes (resazurin); assay type: cell-based; conditions: read-out: Leishmania donovani LV9 Axenic Amastigotes IC50 (µM) ± SD
Procedure: (§2) In vitro anti-leishmanial evaluation was perfomed on both axenic and intramacrophage L. donovani amastigotes as previously described. […] Briefly, compounds were distributed in 96-well plates using 2-fold dilutions in 100 µL PYG medium. A. castellanii trophozoites were added to each well at 5 × 10^4 amoeba/mL in 200 µL final volume. L. donovani axenic amastigotes were added to each well at 10^6 parasites/mL in 200 µL final volume. After 72 h incubation at 27 °C, 20 µL of 1 mM resazurin was added to each well and further incubated at 27 °C for 8 h for A. castellanii and for 24 h for L. donovani axenic amastigotes. In living cells, resazurin is reduced in resorufin. This conversion is monitored by measuring the absorbance at specific wavelengths of resorufin (570 nm) and resazurin (600 nm) using a microplate reader (Labsystems Multiskan MS, McLean, VA, USA). In this assay, the activity was expressed in IC50. Miltefosine and pentamidine were used as reference drugs. All experiments were performed in three independent experiments.

[8] = tested on: O. ochengi adult male; test: Onchocerca ochengi adult male worm motility assay; assay type: cell-based; conditions: 10 μM
Procedure: as §1

[9] = tested on: Leishmania donovani LV9 intramacrophage amastigotes; test: L. donovani LV9 intramacrophage amastigotes; assay type: cell-based; conditions: read-out: Leishmania Donovani LV9 Intramacrophage Amastigotes IC50 (µm) ± SD
Procedure: as §2

[10] = tested on: L. loa microfilariae; test: L. loa microfilariae motility assay; assay type: cell-based; conditions: 10 μM
Procedure: (§3) O. ochengi microfilariae assays: were collected from the hides of infected cattle and washed prior to adding 10–15 microfilariae to 96-well culture plates containing confluent monkey kidney epithelial cells in 100 μL of media. Microfilariae were run in duplicate and plates were maintained at 37 °C in a 5% CO2 incubator. Microfilariae viability was visually scored using percent reduction of motility using the same scoring criteria used for adult males. Scores were recorded every 24 h after addition of drugs for 5 days using an inverted microscope.
L. loa microfilariae assays: L. loa microfilariae were purified from the blood of infected individuals using a step-wise Percoll gradient (46% and 43% Percoll) followed by centrifugation at 400 rcf for 20 min. The microfilariae were recovered in the 43% layer then assayed using the same culture conditions and method as the O. ochengi microfilariae.

[11] = tested on: O. ochengi microfilariae; test: O. ochengi microfilariae motility assay; assay type: cell-based, Onchocerca ochengi; conditions: 10 μM
Procedure: as §3

In the case of `CC(=O)OCC1OC([S][Au][PH]2(c3ccccc3)C(c3ccccn3)=CC=C2c2ccccn2)C(OC(C)=O)C(OC(C)=O)C1OC(C)=O` [GoPI-sugar, 1-thio-β-D-glucopyranose 2,3,4,6-tetraacetato-S-Au{1-phenyl-2,5-di(2-pyridyl)phosphole}], the CC50 [1] is given as ~500 nM, the IC50 [2] is given as 0.49 ± 0.04 nM and the CC50 [3] is given as 4.35 ± 0.04 µM. For the same compound, the “% Inhibition of Motility O. ochengi Adult Female Day 7” value [4] was 51%, the IC50 [5] was 4.3 ± 1.6 nM and the CC50 [6] was 590 nM. The IC50 [7] was 1.45 ± 0.07 µM, the “% Inhibition of Motility O. ochengi Adult Male Day 5” value [8] was 100% and the IC50 [9] was 420 ± 150 nM. For the same compound, the “% Inhibition of Motility L. loa mf w/MK2 Cells Day 5” value [10] was 38% and the “% Inhibition of Motility O. ochengi mf Day 5” value [11] was 100%.
